Consider eight molecules from ChEMBL document CHEMBL1133495 (Bioorg Med Chem Lett, 2000).

Assay [1] has as its target Monoamine transporters; serotonin & dopamine (Homo sapiens) (UniProt P31645+Q01959). The assay can be described thus: Ratio of 5-hydroxy tryptamine and dopamine transporter inhibition. Format: protein assay.
Assay [2] has as its target Sodium-dependent serotonin transporter (Homo sapiens, UniProt P31645). Briefly: The compound was tested for inhibition of [3H]-5-hydroxy tryptamine uptake in HEK cells by expressing cDNA for human […]. Format: cell-based, HEK293.
Assay [3] has as its target Sodium-dependent dopamine transporter (Homo sapiens, UniProt Q01959). Briefly: Inhibition of [3H]dopamine uptake in HEK cells expressing human Dopamine transporter. Format: cell-based, HEK293.
Assay [4] addresses Sodium-dependent noradrenaline transporter (Homo sapiens, UniProt P23975). The assay can be described thus: The compound was tested for inhibition of [3H]norepinephrine uptake in HEK cells by expressing cDNA for human norepinephrine transporter. Format: cell-based, HEK293.

pIC50: −log10 of the molar value.

Chain of Sodium-dependent noradrenaline transporter (P23975 whole entry): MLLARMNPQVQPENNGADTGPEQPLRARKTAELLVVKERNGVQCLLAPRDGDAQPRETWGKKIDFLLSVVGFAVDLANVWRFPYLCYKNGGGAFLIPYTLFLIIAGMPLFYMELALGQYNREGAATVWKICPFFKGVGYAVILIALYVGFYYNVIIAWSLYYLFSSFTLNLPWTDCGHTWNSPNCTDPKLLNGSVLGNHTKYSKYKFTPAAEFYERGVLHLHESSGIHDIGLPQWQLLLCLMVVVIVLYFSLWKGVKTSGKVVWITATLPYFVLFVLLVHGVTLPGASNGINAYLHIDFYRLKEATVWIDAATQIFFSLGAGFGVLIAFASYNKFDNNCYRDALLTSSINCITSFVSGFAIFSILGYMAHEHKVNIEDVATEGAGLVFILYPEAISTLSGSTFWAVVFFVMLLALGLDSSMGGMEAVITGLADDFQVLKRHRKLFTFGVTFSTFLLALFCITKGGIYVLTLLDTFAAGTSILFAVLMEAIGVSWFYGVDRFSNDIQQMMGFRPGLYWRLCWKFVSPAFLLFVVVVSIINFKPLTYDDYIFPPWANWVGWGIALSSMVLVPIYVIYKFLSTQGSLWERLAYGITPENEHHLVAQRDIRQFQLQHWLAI
Chain of Sodium-dependent serotonin transporter (P31645 whole entry): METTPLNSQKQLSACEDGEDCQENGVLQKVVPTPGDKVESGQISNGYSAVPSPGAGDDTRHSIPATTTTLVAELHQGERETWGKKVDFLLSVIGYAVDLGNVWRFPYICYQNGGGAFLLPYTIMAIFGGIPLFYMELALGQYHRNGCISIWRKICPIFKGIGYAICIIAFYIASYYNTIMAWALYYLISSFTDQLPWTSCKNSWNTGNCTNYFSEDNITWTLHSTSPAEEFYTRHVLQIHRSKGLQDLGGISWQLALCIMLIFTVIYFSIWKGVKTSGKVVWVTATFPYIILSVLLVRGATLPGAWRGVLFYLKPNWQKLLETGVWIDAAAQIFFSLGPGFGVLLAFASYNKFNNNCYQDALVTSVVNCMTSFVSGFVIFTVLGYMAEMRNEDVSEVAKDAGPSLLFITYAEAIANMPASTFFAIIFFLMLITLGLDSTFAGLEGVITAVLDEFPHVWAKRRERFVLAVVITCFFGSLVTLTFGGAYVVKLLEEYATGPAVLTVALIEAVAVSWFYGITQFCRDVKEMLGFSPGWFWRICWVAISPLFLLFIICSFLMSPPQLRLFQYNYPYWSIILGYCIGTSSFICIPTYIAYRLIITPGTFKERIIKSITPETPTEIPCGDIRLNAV
Chain of Monoamine transporters; serotonin & dopamine (Homo sapiens) (P31645 whole entry, looked up): as the sequence (P31645 whole entry) above
Chain of Monoamine transporters; serotonin & dopamine (Homo sapiens) (Q01959 whole entry, looked up): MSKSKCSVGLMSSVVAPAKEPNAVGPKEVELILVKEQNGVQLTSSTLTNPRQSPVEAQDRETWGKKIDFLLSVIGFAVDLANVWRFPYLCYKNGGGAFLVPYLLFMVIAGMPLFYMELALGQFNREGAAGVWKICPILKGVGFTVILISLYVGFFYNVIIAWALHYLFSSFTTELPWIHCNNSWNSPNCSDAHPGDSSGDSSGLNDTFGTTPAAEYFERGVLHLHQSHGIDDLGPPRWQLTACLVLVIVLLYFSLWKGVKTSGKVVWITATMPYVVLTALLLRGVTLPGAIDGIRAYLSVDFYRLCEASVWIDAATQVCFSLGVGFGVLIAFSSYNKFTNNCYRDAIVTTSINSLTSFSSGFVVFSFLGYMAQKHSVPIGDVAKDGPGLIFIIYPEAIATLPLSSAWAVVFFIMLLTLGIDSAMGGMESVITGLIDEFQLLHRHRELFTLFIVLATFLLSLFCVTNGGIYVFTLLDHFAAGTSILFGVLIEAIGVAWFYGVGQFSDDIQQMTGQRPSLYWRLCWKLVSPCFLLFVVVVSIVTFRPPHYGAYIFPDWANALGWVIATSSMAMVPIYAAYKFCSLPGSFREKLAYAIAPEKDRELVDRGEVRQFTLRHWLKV
Chain of Sodium-dependent dopamine transporter (Q01959 whole entry): as the sequence (Q01959 whole entry, looked up) above

Regarding `CCC[C@@]1(O)CN2C3CC[C@@H]2C[C@H](c2ccc(C)cc2)C31`, in assay [1], the Ratio turned out to be 0.11. In addition, the pIC50 (in general, the negative decadic logarithm of the IC50, by convention in mol/L) in assay [2] was 7.39; in assay [3], 6.43; in assay [4], 7.74.
For `Cc1ccc([C@H]2C[C@H]3CCC4C2[C@](C)(O)CN43)cc1`, in that order: 0.38, 6.83, 6.41 and 6.53.
`Cc1ccc([C@H]2C[C@H]3CCC4C2C(=O)CN43)cc1`: the Ratio in assay [1] worked out at 0.13. The figures for the negative logarithm of the IC50 (pIC50) in assay [2], in assay [3] and in assay [4] were 7.17, 6.27 and 6.96, respectively.
In the case of `Cc1ccc([C@H]2C[C@H]3CCC4C2[C@@](O)(c2ccccc2)CN43)cc1`, the results for the pIC50 in assay [2] and in assay [4] were 8.10 and 7.96, respectively.
`O=C1CN2C3CC[C@@H]2C[C@H](c2ccc(F)cc2)C13`: the Ratio in assay [1] was determined as 0.076. The pIC50 in assay [2] was 6.60; in assay [3], 5.48; in assay [4], 6.21.
Turning to `CCCC1C2C3CCN2[C@H](C3)C[C@@H]1c1ccc(C)cc1` (stereo partly drawn), the figures for the pIC50 in assay [3] and in assay [4] were 6.24 and 6.96, respectively.
On to `C=C1CN2C3CC[C@@H]2C[C@H](c2ccc(C)cc2)C13`, for which, in assay [1], the Ratio was 0.49. For the same molecule, the pIC50 is 7.48 in assay [2], 7.17 in assay [3] and 8.66 in assay [4].
For the molecule `Cc1ccc([C@H]2C[C@H]3CCC4C2[C@@](O)(c2ccc(Cl)cc2)CN43)cc1`, the Ratio in assay [1] is 0.3. For the same molecule, the negative logarithm of the IC50 (pIC50) was 7.89 in assay [2], 7.36 in assay [3] and 7.64 in assay [4].
